# US6737383B1, “Herbicidal oxadiazolidines” (priority 1999, dated 2004)
# How the values were obtained:
# purple nutsedge = experiment: Test B pre/postemergence purple nutsedge; type: in vivo, Cyperus rotundus; details: for Nutsedge plant response rating (0 to 10 scale): 0 is no effect
# Summary of the method: (§1)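 Response is a visual 0-to-10 score relative to untreated plants, where 0 means no effect and 10 means complete control, taken twelve to sixteen days after application. Treatments went onto soil at planting and onto foliage of 1- to 4-leaf plants, using a surfactant-containing non-phytotoxic solvent.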
# winter barley = experiment: Test E winter barley; type: in vivo, Hordeum vulgare; details: Preemergence
# winter wheat [1] = experiment: Test E winter wheat; type: in vivo, Triticum aestivum; details: Postemergence, 0 to 100 scale
# Summary of the method: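 Greenhouse test: compounds in non-phytotoxic solvent with surfactant; for postemergence, sprayed on plants at 1- to 4-leaf stage grown in 60:40 sandy loam/potting mix. Injury rated visually against untreated controls after about 21 to 28 days.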
# wild oat = experiment: Test E wild oat; type: in vivo, Avena fatua; details: Preemergence
# winter wheat [2] = experiment: Test E winter wheat; type: in vivo, Triticum aestivum; details: Preemergence
# common ragweed = experiment: Test D common ragweed; type: in vivo, Ambrosia elatior; details: Preemergence, 0 to 100 scale
# Text: (§2) Seeds, tubers, or plant parts of Alexandergrass (Brachiaria plantaginea), bermuda-grass (Cynodon dactylon), common pursiane (Portulaca oleracea), common ragweed (Ambrosia elatior), common groundsel (Senecio vulgaris), dallisgrass (Paspalum dilatatum), goosegrass (Eleusine indica), guineagrass (Panicum maximum), itchgrass (Rottboellia exaltata), Johnson grass (Sorghum halepense), large crabgrass (Digitaria sanguinalis), pitted morningglory (Ipomoea lacunosa), purple nutsedge (Cyperus rotundus), sandbur (Cenchrus echinatus), sourgrass (Trichachne insularis), Spanishneedles (Bidens bipinnata), surinam grass (Brachiaria decumbens) and tall mallow (Malva sylvestris) were planted into greenhouse pots of flats containing greenhouse planting medium. Plant species were grown in separate pots or individual compartments. Preemergence applications were made within one day of planting the seed or plant part.
# (§3) Test chemicals were formulated in a non-phytotoxic solvent mixture which included a surfactant and applied preemergence to the surface of the pot containing seeds in a sandy loam soil. Untreated control pots and treated pots were placed in the greenhouse for growth and visually evaluated for injury 14 to 21 days after herbicide application. Plant response ratings, summarized in Table C, are based on a 0 to 100 scale where 0 is no injury and 100 is complete control. A dash (−) response means no test result.
# sugar beet = experiment: Test B pre/postemergence sugar beet; type: in vivo, Beta vulgaris; details: for Sugarbeets plant response rating (0 to 10 scale): 0 is no effect
# Summary of the method: as §1
# bermuda-grass = experiment: Test D bermudagrass; type: in vivo, Cynodon dactylon; details: Preemergence, 0 to 100 scale
# Text: as §2, §3
# green foxtail = experiment: Test E green foxtail; type: in vivo, Setaria viridis; details: Preemergence
# duck salad = experiment: Test B flood test duck salad; type: in vivo, Heteranthera limosa
# Summary of the method: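 Read-out is a visual response score from 0 (no effect) to 10 (complete control), assigned by comparison with untreated controls. Treatment was applied at the 2-leaf stage, and plants stayed in the greenhouse for twelve to sixteen days before scoring.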
# rape = experiment: Test B pre/postemergence rape; type: in vivo, Brassica napus; details: for Rape plant response rating (0 to 10 scale): 0 is no effect
# Summary of the method: as §1
# Italian ryegrass = experiment: Test E Italian ryegrass; type: in vivo, Lolium multiflorum; details: Preemergence
# blackgrass = experiment: Test E blackgrass; type: in vivo, Alopecurus myosuroides; details: Preemergence
# [3] = Postemergence, Rate 125 g/ha, scale of 0 to 10 where 0 is no effect and 10 is complete control
# [4] = Preemergence, Rate 62 g/ha, scale 0 to 10 (0 no effect, 10 complete control)
# [5] = Preemergence, Rate 125 g/ha, 10 is complete control
# [6] = Preemergence, Rate 250 g/ha, scale 0 to 10, 0 is no effect, 10 is complete control
# [7] = Preemergence, Rate 500 g/ha, scale 0 to 10 (0 no effect, 10 complete control)
# [8] = Rate 62 g/ha, Postemergence, scale of 0 to 10 where 0 is no effect and 10 is complete control
# [9] = Rate 250 g/ha, Postemergence, scale 0 to 10, 0 is no effect, 10 is complete control
# [10] = Rate 500 g/ha, Postemergence, scale 0 to 10
# [11] = Rate 31 g/ha, 0 to 100 scale, 0 no effect, 100 complete control
# [12] = Rate 62 g/ha, 0 to 100 scale, 0 no effect, 100 complete control
# [13] = Rate 125 g/ha, 0 to 100 scale (0 no effect, 100 complete control)
# [14] = Rate 16 g/ha, 0 no injury, 100 complete control
# [15] = Rate 32 g/ha, 0 no injury, 100 complete control
# [16] = Rate 64 g/ha, 0 no injury, 100 complete control
# [17] = Rate 125 g/ha, 0 no injury, 100 complete control
# [18] = Preemergence, Rate 62 g/ha, scale of 0 to 10 where 0 is no effect and 10 is complete control
# [19] = Preemergence, Rate 500 g/ha, scale of 0 to 10 where 0 is no effect and 10 is complete control
# [20] = Rate 125 g/ha, Postemergence, scale 0 to 10
# [21] = Rate 500 g/ha, 0 to 100 scale where 0 is no effect and 100 is complete control
# [22] = Rate 1000 g/ha, 0 to 100 scale where 0 is no effect and 100 is complete control
compound,measurement,setting,value
C=CCn1c(=O)on(C(=O)N(c2ccc(F)cc2F)C(C)C)c1=O [Compound 151],Nutsedge plant response rating,purple nutsedge; [3],3
same,Nutsedge plant response rating,purple nutsedge; [4],0
same,Nutsedge plant response rating (0 to 10 scale),purple nutsedge; [5],0
same,Nutsedge plant response rating,purple nutsedge; [6],0
same,Nutsedge plant response rating,purple nutsedge; [7],2
same,Nutsedge plant response rating,purple nutsedge; [8],2
same,"Plant response rating, Nutsedge",purple nutsedge; [9],5
same,Nutsedge plant response rating,purple nutsedge; [10],5
same,"Plant response rating, Barley (winter)",winter barley; [11],10
same,"Plant response rating, Barley (winter)",winter barley; [12],10
same,"Plant response rating, Barley (winter)",winter barley; [13],20
same,"Plant response rating, Wheat (winter)","winter wheat [1]; Rate 31 g/ha, 0 no effect, 100 complete control",10
same,"Plant response rating, Wheat (winter)",winter wheat [1]; Rate 62 g/ha,10
same,"Plant response rating, Wheat (winter)",winter wheat [1]; Rate 125 g/ha,70
same,"Plant response rating, Wild oat",wild oat; [11],10
same,"Plant response rating, Wild oat",wild oat; [12],10
same,"Plant response rating, Wild oat",wild oat; [13],20
same,"Plant response rating, Wheat (winter)",winter wheat [2]; [11],0
same,"Plant response rating, Wheat (winter)",winter wheat [2]; [12],0
same,"Plant response rating, Wheat (winter)",winter wheat [2]; [13],10
same,"Plant response rating, C. ragweed",common ragweed; [14],0
same,"Plant response rating, C. ragweed",common ragweed; [15],0
same,"Plant response rating, C. ragweed",common ragweed; [16],0
same,"Plant response rating, C. ragweed",common ragweed; [17],0
same,"Plant response rating, C. ragweed",common ragweed; Rate 250 g/ha,20
same,"Plant response rating, C. ragweed",common ragweed; Rate 500 g/ha,20
same,Sugarbeets plant response rating,sugar beet; [3],3
same,Sugarbeets plant response rating,sugar beet; [4],1
same,Sugarbeets plant response rating (0 to 10 scale),sugar beet; [5],8
same,Sugarbeets plant response rating,sugar beet; [6],10
same,Sugarbeets plant response rating,sugar beet; [7],10
same,Sugarbeets plant response rating,sugar beet; [8],2
same,"Plant response rating, Sugarbeets",sugar beet; [9],3
same,Sugarbeets plant response rating,sugar beet; [10],3
same,"Plant response rating, Bermudagrass",bermuda-grass; [14],90
same,"Plant response rating, Bermudagrass",bermuda-grass; [15],90
same,"Plant response rating, Bermudagrass",bermuda-grass; [16],90
same,"Plant response rating, Bermudagrass",bermuda-grass; [17],100
same,"Plant response rating, Bermudagrass",bermuda-grass; Rate 250 g/ha,100
same,"Plant response rating, Bermudagrass",bermuda-grass; Rate 500 g/ha,100
same,"Plant response rating, Green foxtail",green foxtail; [11],20
same,"Plant response rating, Green foxtail",green foxtail; [12],30
same,"Plant response rating, Green foxtail",green foxtail; [13],80
same,Ducksalad plant response rating,"duck salad; Postemergence (flood test species), Rate 125 g/ha, scale of 0 to 10 where 0 is no effect and 10 is complete control",0
same,Ducksalad plant response rating,"duck salad; Rate 62 g/ha, Postemergence section, flood test species, scale of 0 to 10 where 0 is no effect and 10 is complete control",0
same,"Plant response rating, Ducksalad","duck salad; Rate 250 g/ha, Postemergence (flood test), scale 0 to 10, 0 is no effect, 10 is complete control",0
same,Ducksalad plant response rating,"duck salad; Rate 500 g/ha, listed under Postemergence (flood test species), scale 0 to 10",2
same,Rape plant response rating,rape; [3],0
same,Rape plant response rating,rape; [4],2
same,Rape plant response rating (0 to 10 scale),rape; [5],8
same,Rape plant response rating,rape; [6],10
same,Rape plant response rating,rape; [7],10
same,Rape plant response rating,rape; [8],0
same,"Plant response rating, Rape",rape; [9],0
same,Rape plant response rating,rape; [10],2
same,"Plant response rating, I. Ryegrass",Italian ryegrass; [11],20
same,"Plant response rating, I. Ryegrass",Italian ryegrass; [12],30
same,"Plant response rating, I. Ryegrass",Italian ryegrass; [13],50
same,"Plant response rating, Blackgrass",blackgrass; [11],30
same,"Plant response rating, Blackgrass",blackgrass; [12],45
same,"Plant response rating, Blackgrass",blackgrass; [13],75
CCCn1c(=O)on(C(=O)N(c2ccc(F)cc2F)C(C)C)c1=O [Compound 130],Nutsedge plant response rating,purple nutsedge; [3],0
same,Nutsedge plant response rating,purple nutsedge; [4],0
same,Nutsedge plant response rating (0 to 10 scale),purple nutsedge; [5],0
same,Nutsedge plant response rating,purple nutsedge; [6],0
same,Nutsedge plant response rating,purple nutsedge; [7],3
same,Nutsedge plant response rating,purple nutsedge; [8],0
same,"Plant response rating, Nutsedge",purple nutsedge; [9],0
same,Nutsedge plant response rating,purple nutsedge; [10],0
same,"Plant response rating, C. ragweed",common ragweed; [16],30
same,Sugarbeets plant response rating,sugar beet; [3],0
same,Sugarbeets plant response rating,sugar beet; [4],7
same,Sugarbeets plant response rating (0 to 10 scale),sugar beet; [5],9
same,Sugarbeets plant response rating,sugar beet; [6],10
same,Sugarbeets plant response rating,sugar beet; [7],10
same,Sugarbeets plant response rating,sugar beet; [8],0
same,"Plant response rating, Sugarbeets",sugar beet; [9],2
same,Sugarbeets plant response rating,sugar beet; [10],4
same,"Plant response rating, Bermudagrass",bermuda-grass; [16],100
same,Rape plant response rating,rape; [3],2
same,Rape plant response rating,rape; [4],4
same,Rape plant response rating (0 to 10 scale),rape; [5],9
same,Rape plant response rating,rape; [6],10
same,Rape plant response rating,rape; [7],10
same,Rape plant response rating,rape; [8],0
same,Rape plant response rating,rape; [10],2
CC(C)N(C(=O)n1oc(=O)n(Cc2ccco2)c1=O)c1ccc(F)cc1F [Compound 208],Nutsedge plant response rating,purple nutsedge; [18],0
same,Nutsedge plant response rating (0 to 10 scale),purple nutsedge; [5],0
same,Nutsedge plant response rating,purple nutsedge; [6],0
same,"Plant response rating, Nutsedge",purple nutsedge; [19],0
same,Nutsedge plant response rating,purple nutsedge; [8],0
same,Nutsedge plant response rating,purple nutsedge; [20],0
same,"Plant response rating (0 to 10; 0 is no effect, 10 is complete control), Nutsedge","purple nutsedge; Rate 250 g/ha, Postemergence",0
same,Nutsedge plant response rating,purple nutsedge; [10],0
same,Barley (winter) plant response rating (0 to 100 scale),winter barley; Rate 250 g/ha,30
same,"Plant response rating, Barley (winter)",winter barley; [21],40
same,"Plant response rating, Barley (winter)",winter barley; [22],50
same,"Plant response rating, Wheat (winter)","winter wheat [1]; Rate 1000 g/ha, 0 is no effect and 100 is complete control",60
same,"Plant response rating, Wheat (winter)","winter wheat [1]; Rate 500 g/ha, 0 is no effect, 100 is complete control",50
same,Wild oat plant response rating (0 to 100 scale),wild oat; Rate 250 g/ha,50
same,"Plant response rating, Wild oat",wild oat; [21],60
same,"Plant response rating, Wild oat",wild oat; [22],50
same,Wheat (winter) plant response rating (0 to 100 scale),winter wheat [2]; Rate 250 g/ha,30
same,"Plant response rating, Wheat (winter)",winter wheat [2]; [21],30
same,"Plant response rating, Wheat (winter)",winter wheat [2]; [22],30
same,Sugarbeets plant response rating,sugar beet; [18],0
same,Sugarbeets plant response rating (0 to 10 scale),sugar beet; [5],0
same,Sugarbeets plant response rating,sugar beet; [6],0
same,"Plant response rating, Sugarbeets",sugar beet; [19],0
same,Sugarbeets plant response rating,sugar beet; [8],0
same,Sugarbeets plant response rating,sugar beet; [20],0
same,"Plant response rating (0 to 10; 0 is no effect, 10 is complete control), Sugarbeets","sugar beet; Rate 250 g/ha, Postemergence",0
same,Sugarbeets plant response rating,sugar beet; [10],0
same,Green foxtail plant response rating (0 to 100 scale),green foxtail; Rate 250 g/ha,40
same,"Plant response rating, Green foxtail",green foxtail; [21],60
same,"Plant response rating, Green foxtail",green foxtail; [22],70
same,Ducksalad plant response rating,"duck salad; Rate 62 g/ha, headed Pre-emergence (flood test species), scale 0 to 10 (0 no effect, 10 complete control)",0
same,Ducksalad plant response rating,"duck salad; Rate 125 g/ha, Pre-emergence, flood test species, scale 0 to 10 where 0 is no effect and 10 is complete control",0
same,Ducksalad plant response rating,"duck salad; Rate 250 g/ha, Pre-emergence, flood-test species, scale 0 to 10, 0 is no effect, 10 is complete control",0
same,Ducksalad plant response rating,"duck salad; Rate 500 g/ha, Pre-emergence, flood test species, scale 0 to 10 (0 no effect, 10 complete control)",0
same,Rape plant response rating,rape; [18],0
same,Rape plant response rating (0 to 10 scale),rape; [5],0
same,Rape plant response rating,rape; [6],0
same,"Plant response rating, Rape",rape; [19],0
same,Rape plant response rating,rape; [8],0
same,Rape plant response rating,rape; [20],0
same,"Plant response rating (0 to 10; 0 is no effect, 10 is complete control), Rape","rape; Rate 250 g/ha, Postemergence",0
same,Rape plant response rating,rape; [10],0
same,I. Ryegrass plant response rating (0 to 100 scale),Italian ryegrass; Rate 250 g/ha,50
same,"Plant response rating, I. Ryegrass",Italian ryegrass; [21],60
same,"Plant response rating, I. Ryegrass",Italian ryegrass; [22],95
same,Blackgrass plant response rating (0 to 100 scale),blackgrass; Rate 250 g/ha,40
same,"Plant response rating, Blackgrass",blackgrass; [21],85
same,"Plant response rating, Blackgrass",blackgrass; [22],85
